Article PMC5578999, “Novel quinolone chalcones targeting colchicine-binding pocket kill multidrug-resistant cancer cells by inhibiting tubulin activity and MRP1 function” (Scientific Reports, 2017)

Experiments:
KB-C-2 [1] = assay: SRB cell viability, MDR1-overexpressing cells; assay type: cell-based, human; conditions: KB-C-2 vs KB-C-1; Table S1
SW-1271 = assay: SRB cell viability; assay type: cell-based; conditions: SW1271
Protocol: (§1) Cell line authentication was carried out by Genetica DNA
(§2) Cell viability, com binational i ndex and cell synchronization
(§3) Cell viability and proliferation were ex amined using a s ulforhodamine B (SRB) assa y as […]
(§4) IC 50 values were calculat ed from si gmoidal dose-response cu rves gen erat ed b y at least two indepen dent ex periments , with each quadruplicate samples, using GraphPad Prism v.5.04 software (GraphPad Software, Inc, La J olla, CA). […]
(§5) (sham) or presence of compound(s). […]

purified porcine tubulin [2] = biological target: T1, purified porcine tubulin (Sus scrofa, UniProt P02554); assay: Intrinsic tryptophan fluorescence quenching of tubulin; assay type: binding
T1 construct: purified porcine tubulin (T240, Cytoskeleton); purchased Cytoskeleton T240
Protocol: A two-step extraction procedure was used to differentially extract tubulin heterodimers and microtubules from sham-treated cells or those treated with compounds as described previously. To determine the binding ability of CTR compounds to tubulin, the changes in the intrinsic tryptophan fluorescence of purified porcine tubulin (T240, Cytoskeleton) was measured as described previously. GraphPad Prism software was used to determine the dissociation constant of CTRs bound to tubulin, and the following formula was used: ∆F=∆Fmax×C/Kd+C Where, ΔF is the changes in the fluorescence intensity of the tubulin when bound by CTR; ΔFmax is the maximum change in the fluorescence intensity; C is compound concentration; and Kd is the dissociation constant of the compound. The experiment was repeated five times.

KB-C-2 [3] = assay: SRB cell viability, MDR1-overexpressing cells; assay type: cell-based; conditions: Homo sapiens, KB-C2; KB-C-2 MDR1-overexpressing cells
Protocol: human epidermoid carcinoma cell line and KB-C2, an isogenic MDR1- overexpressing drug-resistant cell line, were kindl y provided b y Dr. Amit K Tiwari, the Universit y of Toledo, OH. […]
as §1, §2, §3, §4, §5

[4] = Serum ALT and AST, CD1 mice; conditions: paclitaxel 10 mg/kg, CTR 30 mg/kg, combinations paclitaxel 5 + CTR 15 mg/kg, vehicle 38.76 ± 0.17, in U/L (unit assumed)
Source text: Alanine transaminase (ALT, SUP6001-c) and Aspartate transaminase (AST, SUP6002-c) color endpoint assay kits were purchased from ID Labs (London, Ontario, Canada).
Blood samples were collected via cardiac puncture and processed for ALT and AST measurements. The animals were then immediately euthanized by carbon dioxide.

[5] = Serum ALT and AST, ATH490 mice; conditions: 30 days, paclitaxel 10 mg/kg, CTR 30 mg/kg, combinations 5 + 15 mg/kg; for ALT: sham 64.03± 4.04; for AST: sham 112.46 ± 4.74
Protocol: For paclitaxel treatments, 40 mg/ml stock solution of paclitaxel (Sigma, MO) was prepared in DMSO. […] Alanine transaminase (ALT, SUP6001-c) and Aspartate transaminase (AST, SUP6002-c) color endpoint assay kits were purchased from ID Labs (London, Ontario, Canada).
Athymic mice engrafted with tumor cells were used to determine antitumor activity. […] When tumor size reached 5–6 mm in diameter (n = 4–5 per group), mice were randomly assigned into several groups and vehicle-treated or treated with drug(s). […] Animals were monitored for food and water consumption every day, and their body weights and tumor volumes were measured twice per week. Tumor volumes were measured with a digital caliper and were determined by the following formula: ½ length × width^2. Blood samples were collected via cardiac puncture and processed for ALT and AST measurements. The animals were then immediately euthanized by carbon dioxide.
carri ed out using GraphP ad Prism software. All values are pr esented as mean±S.E.M.
Comparison between each group was made b y p values determined using one-wa y ANOVA. The
p value of <0.05 is consi dered to be statisticall y significant. Each organ weight was norm alized
with total body mass (BM) as expressed in %.
ATH490 athymic mice were vehicle -treated (Sham) or treated with indicated compounds
and doses for 30 da ys , followed by harvesting liver ( and other o r gans ; Fi g. 7d) for an al ysis of
their toxic effects . […] ( b) Blood sera w erecollected from mice
treated with indicated compounds and doses, and then examinedthe levels of ALT and AST to
gain insight into liver toxicity.
All values ar e present ed as mean±S.E .M.

purified porcine tubulin [6] = biological target: T1, purified porcine tubulin; assay: In vitro microtubule assembly (light scattering) assay; assay type: biochemical; conditions: 3 µmol/L CTR-17, 1 µmol/L CTR-20; 340 nm, one hour, 37 °C
Protocol: Figure 5 CTRs inhibited microtubule polymerization by binding to tubulin through the colchicine-binding pocket. (a) CTRs inhibited microtubule polymerization in a similar manner to that of nocodazole. Purified porcine tubulin and 1.0 mmol/L GTP were added to reaction mixture (37 °C) containing 10 µmol/L paclitaxel (Tax), 3 µmol/L CTR-17, 1 µmol/L CTR-20, or 5 µmol/L nocodazole (Noco). Polymerization of microtubule was monitored every minute for one hour at 340 nm by spectrophotometry. Note that G-PEM buffer contains 400 µg of purified tubulin. (b) CTR-20 (and CTR-17; Supplementary Fig. S12) bound tubulin. CTR-20 quenched the intrinsic tryptophan fluorescence of tubulin in a dose-dependent manner. The changes in fluorescence intensity (∆F) were plotted against drug concentrations to determine the dissociation constant. […] CTR-20 (and CTR-17; Supplementary Fig. S12) depressed the fluorescence of the colchicine-tubulin complex in a dose-dependent manner. The fluorescence intensity of the final tubulin complex was used to determine the inhibitory concentration (Ki) using a modified Dixon plot. The fluorescence intensity was normalized by subtracting any intrinsic fluorescence of CTR-20 at given doses from that of the complex. “F” is the fluorescence of the CTR-colchicine-tubulin complex, and “F0” is the fluorescence of the colchicine-tubulin complex. […]

H69AR = assay: SRB cell viability, multidrug-resistant cells; assay type: cell-based; conditions: for IC50: Homo sapiens, H69AR
Protocol: as §1, §2, §3, §4, §5

[7] = Body and organ weights, side effects; conditions: CTR-17 30 mg/kg, CTR-20 30 mg/kg, paclitaxel 10 mg/kg; CD-1 or ATH490 strains
Protocol: Athymic mice engrafted with tumor cells were used to determine antitumor activity. […] When tumor size reached 5–6 mm in diameter (n = 4–5 per group), mice were randomly assigned into several groups and vehicle-treated or treated with drug(s). […] Animals were monitored for food and water consumption every day, and their body weights and tumor volumes were measured twice per week. Tumor volumes were measured with a digital caliper and were determined by the following formula: ½ length × width^2. Blood samples were collected via cardiac puncture and processed for ALT and AST measurements. The animals were then immediately euthanized by carbon dioxide. Tumors and vital organs (spleen, kidney, liver and lung) were harvested and fixed in 10% buffered formalin at 4 °C overnight before being processed for a paraffin embedding. The paraffin-embedded blocks were then sectioned to 4–5 µm thick. Each section was stained with haematoxylin and eosin (H&E).

[8] = system: MDA-MB-231 triple-negative metastatic breast cancer cells; assay: Antitumor activity in engrafted athymic mice; assay type: in vivo, ATH490 athymic mice; conditions: for tumor volume Day 0 / tumor volume Day 6: Tax 10 mg/kg i.v. once/week, CTR 30 mg/kg i.p. every 3-4 days, combinations Tax 5 + CTR 15 mg/kg once/week; for tumor volume Day 6: sham 105.03; for tumor volume Day 14 / tumor volume Day 17 / tumor volume Day 20 / tumor volume Day 24 / tumor volume Day 27 / tumor volume Day 30: same doses; for tumor volume Day 14: sham 136.66; for tumor volume Day 17: sham 162.62; for tumor volume Day 20: sham 192.69; for tumor volume Day 24: sham 268.08; for tumor volume Day 27: sham 426.87; for tumor volume Day 30: sham 557.66
Protocol: The animals were then immediately euthanized by carbon dioxide. […]
Supplementary Table S2. A typical treatment protocol of engrafted mice with CTR alone or in
combination with paclitaxel.
Treatment Dos a ge Frequ enc y Route Notes
Sham control Highest volume E v e r y 3-4 d a ys Intraperitoneal (I.P.) Vehicle onl y
Taxa 10 mg/kgb Once/week Intravenous ( I.V.)
CTR-17 (30) 30 mg/kg E v e r y 3-4 d a ys I. P .
CTR-20 (30) 30 mg/kg E v e r y 3-4 d a ys I. P .
Supplementary Table S 3: Antitumor activity of CTR -17 and CTR -20, alone or in combination
a Tax: paclitaxel. b mg per kg of bod y wei ght. c unit is mm 3. […]

T1 sequence (P02554 whole entry): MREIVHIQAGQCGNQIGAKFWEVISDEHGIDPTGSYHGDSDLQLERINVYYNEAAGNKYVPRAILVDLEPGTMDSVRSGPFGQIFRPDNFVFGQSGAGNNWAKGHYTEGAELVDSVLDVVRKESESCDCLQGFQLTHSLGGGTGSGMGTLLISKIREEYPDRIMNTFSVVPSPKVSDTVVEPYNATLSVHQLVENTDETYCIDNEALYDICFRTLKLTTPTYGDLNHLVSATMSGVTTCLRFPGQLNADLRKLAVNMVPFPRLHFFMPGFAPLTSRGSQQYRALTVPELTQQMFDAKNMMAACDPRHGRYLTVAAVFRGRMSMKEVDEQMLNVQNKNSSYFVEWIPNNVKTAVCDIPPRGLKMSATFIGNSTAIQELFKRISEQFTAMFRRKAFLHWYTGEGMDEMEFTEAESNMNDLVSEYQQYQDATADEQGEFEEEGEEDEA
T1 sequence (P02550 whole entry partner): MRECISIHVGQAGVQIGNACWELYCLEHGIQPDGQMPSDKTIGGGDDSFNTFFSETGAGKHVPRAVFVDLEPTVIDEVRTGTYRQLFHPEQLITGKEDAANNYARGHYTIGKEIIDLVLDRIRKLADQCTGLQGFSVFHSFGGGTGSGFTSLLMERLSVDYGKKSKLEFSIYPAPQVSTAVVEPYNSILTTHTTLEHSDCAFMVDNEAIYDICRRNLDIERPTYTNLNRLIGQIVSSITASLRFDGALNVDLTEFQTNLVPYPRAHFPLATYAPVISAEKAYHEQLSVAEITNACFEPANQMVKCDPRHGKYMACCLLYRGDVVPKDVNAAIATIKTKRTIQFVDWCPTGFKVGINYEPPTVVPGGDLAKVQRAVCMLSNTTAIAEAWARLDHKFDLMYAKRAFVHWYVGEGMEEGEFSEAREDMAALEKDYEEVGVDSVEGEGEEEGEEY

Row | Structure (SMILES) | Resistance (fold) (KB-C-2 [1]) | IC50 (SW-1271) | Kd (purified porcine tubulin [2]) | IC50 (KB-C-2 [3]) | levels of ALT and AST [4] | ALT [5] | AST [5] | effect on microtubule polymerization (purified porcine tubulin [6]) | IC50 (H69AR) | side effects (changes in body and organ weights) [7] | tumor volume Day 0 [8] | tumor volume Day 6 [8] | tumor volume Day 14 [8] | tumor volume Day 17 [8] | tumor volume Day 20 [8] | tumor volume Day 24 [8] | tumor volume Day 27 [8] | tumor volume Day 30 [8] | Resistance (fold) (H69AR; H69AR vs SW-1271, Table S1)
1 | COc1ccc2[nH]c(=O)c(/C=C/C(=O)c3ccccc3OC)cc2c1 [CTR-20, (E)-6-Methoxy-3-(3-(2-methoxyphenyl)-3-oxoprop-1-enyl) quinolin-2(1H)-one] | 2.50 fold | 1950 ± 10 nM | 5090 ± 490 nM | 250 ± 30 nM | 30.43 ± 0.49 | 50.50± 9.96 IU/L | 118.22±17.00 IU/L | inhibit microtubule polymerization | 130 ± 10 nM | did not cause any notable side effects | 92.51 mm3 | 69.89 mm3 | 84.64 mm3 | 97.11 mm3 | 97.22 mm3 | 106.26 mm3 | 124.88 mm3 | 140.63 mm3 | 
2 | COc1ccccc1C(=O)/C=C/c1cc2ccccc2[nH]c1=O [CTR-17, (E)-3-(3-(2-Methoxyphenyl)-3-oxoprop-1-enyl)quinolin-2(1H)-one] | 1.71 fold | 1140 ± 40 nM | 4580 ± 950 nM | 650 ± 160 nM | 37.02 ± 1.46 | 64.67± 5.26 IU/L | 114.13 ± 6.36 IU/L | inhibit microtubule polymerization | 520 ± 100 nM | did not cause any notable side effects | 86.71 mm3 | 63.99 mm3 | 90.07 mm3 | 128.36 mm3 | 134.76 mm3 | 160.86 mm3 | 189.45 mm3 | 209.84 mm3 | 0.45 fold
